Measurements from patent EP4596561A1, “PHOSPHORUS-CONTAINING COMPOUND, PHARMACEUTICAL COMPOSITION AND USE THEREOF” (Suzhou Genhouse Bio Co., Ltd., priority 2022, dated 2024).

Tested on: MSTO-211H cells
Experiment: Pharmacodynamic test, MSTO-211H subcutaneous xenograft
Format: in vivo, nude mice (BALB/c nu/nu)
Details: MSTO-211H xenograft
Description: Healthy female nude mice (BALB/c nu/nu) aged 6-8 weeks were housed in an SPF environment in accordance with animal ethical guidelines. The well-growing 5M MSTO-211H cells were harvested through trypsin digestion, washed in phosphate-buffered saline (PBS), and then resuspended in PBS containing 50% matrigel (BD Biosciences).
Subcutaneous injection was then performed at the dorsolateral sites of the mice, and the tumor volume was measured once every three days thereafter. When the tumor volume reached around 150-200 mm^3, the mice were randomly assigned to different treatment groups. Any one of the compounds described herein was prepared accordingly and administered at an appropriate dose. Finally, the tumor growth in the nude mice was analyzed after 4 to 6 weeks based on the growth of the tumors.

SMILES	TGI (25mpk QD) [mpk QD TGI = 107.93%]	TGI (50mpk QD)	TGI (150mpk QD)
CP(C)(=O)c1ccc2c(Oc3ccc(C(F)(F)F)cc3)cccc2c1 [Example 7]	25	–	–
Cn1cnc(-c2cc(P(C)(C)=O)cnc2Nc2ccc(C(F)(F)F)cc2)c1 [Example 8]	–	50mpk QD TGI = 104.28%	–
Cn1cnc(-c2cc(P(C)(C)=O)ccc2Nc2ccc(C(F)(F)F)cc2)c1 [Example 14]	–	50mpk QD TGI = 100.43%	150mpk QD TGI = 118.27%
CP(C)(=O)c1cnc(Nc2ccc(C(F)(F)F)cc2)c(-c2cn3c(n2)CCC3)c1 [Example 22]	–	–	150mpk QD TGI = 102.62%
